Where a name gives a salt, the structure may show the parent alone.
Test system: all test organisms
Assay: MIC, micro broth dilution (summary in text)
Format: cell-based
Conditions: planktonic cells, read-out: MICs ranging over all test organisms
Protocol: An assay was made using a minimum inhibitory concentration (MIC) and minimum bactericidal concentration (MBC) and minimum fungicidal concentration (MFC) determination. The MIC was determined by the micro broth dilution method in 96-well plates. […] A 10 μL containing 1×10^5 bacterial cells or 2×10^3 fungal cells were added to each well. The inoculated plates were covered with a lid, sealed with Parafilm, and incubated for 24 h at 37° C. with slight rocking on a tilting platform shaker. After incubation, the optical density at 600 nm (OD 600) of the cultures in each well was measured using an xMark™ Microplate Absorbance Spectrophotometer (Bio-Rad). The MIC was defined as the lowest concentration of antimicrobial compound at which the culture OD600 values were similar to uninoculated control wells. MBCs and MFCs were determined by transferring 100 μL from each well with no apparent growth onto appropriate agar plates, followed by incubation for 24 h at 37° C.

Molecule `[H]/N=C(\N/C(=N/[H])NCCCCCCNC(=N)NC(=N)Nc1ccc(Cl)cc1)Nc1ccc(Cl)cc1` [Chlorhexidine HCl, 1,6-bis(4′-chlorophenylbiguanide) hexane] has an MIC of 0.1 to 50 µg/mL.
